Laboratory results as given in ChEMBL document CHEMBL1139099, “Novel trifluoroacetophenone derivatives as malonyl-CoA decarboxylase inhibitors” (Bioorg Med Chem Lett, 2007).

Biological target: T1, Malonyl-CoA decarboxylase, mitochondrial (Homo sapiens, UniProt O95822)
T1 sequence (O95822 whole entry): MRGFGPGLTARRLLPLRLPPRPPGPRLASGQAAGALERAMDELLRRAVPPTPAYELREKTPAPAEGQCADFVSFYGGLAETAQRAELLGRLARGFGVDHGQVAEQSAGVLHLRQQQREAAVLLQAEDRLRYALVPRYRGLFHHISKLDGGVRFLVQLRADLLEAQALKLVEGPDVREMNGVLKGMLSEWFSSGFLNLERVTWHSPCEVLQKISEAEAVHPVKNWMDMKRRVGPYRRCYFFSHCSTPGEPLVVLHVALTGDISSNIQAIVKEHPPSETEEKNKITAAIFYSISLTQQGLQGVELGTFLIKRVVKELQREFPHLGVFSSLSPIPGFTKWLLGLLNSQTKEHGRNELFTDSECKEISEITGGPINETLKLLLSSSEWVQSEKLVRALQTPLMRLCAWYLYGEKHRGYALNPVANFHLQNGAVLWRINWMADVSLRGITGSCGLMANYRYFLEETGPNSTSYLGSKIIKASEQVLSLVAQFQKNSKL
Experiment: Inhibition of MBP fused human MCD

An IC50 of 2300 nM was found for `O=C(NCC1CCCCC1)c1ccc(C(=O)C(F)(F)F)cc1` in this work.
